The source made the active and inactive calls. The rule behind the calls is not given here.
How the values were obtained:
MDA-MB-435 = experiment: Growth inhibition of human MDA-MB-435 cells incubated for 48 hrs by sulforhodamine B assay; format: functional; conditions: MDA-MB-435, 48 h
MDA-MB-468 [1] = experiment: Growth inhibition of human MDA-MB-468 cells incubated for 48 hrs by sulforhodamine B assay; format: functional; conditions: MDA-MB-468, 48 h
SK-MEL-5 = experiment: Growth inhibition of human SK-MEL-5 cells incubated for 48 hrs by sulforhodamine B assay; format: functional; conditions: SK-MEL-5, 48 h
NCI/ADR-RES = experiment: Growth inhibition of human NCI/ADR-RES cells incubated for 48 hrs by sulforhodamine B assay; format: functional
COLO 205 = experiment: Growth inhibition of human COLO205 cells incubated for 48 hrs by sulforhodamine B assay; format: functional; conditions: COLO 205, 48 h
TK-10 = experiment: Growth inhibition of human TK10 cells incubated for 48 hrs by sulforhodamine B assay; format: functional; conditions: TK-10, 48 h
SN12C = experiment: Growth inhibition of human SN12C cells incubated for 48 hrs by sulforhodamine B assay; format: functional
OVCAR-5 = experiment: Growth inhibition of human OVCAR5 cells incubated for 48 hrs by sulforhodamine B assay; format: functional; conditions: OVCAR-5, 48 h
[2] = test system: Panel NCI-60 (60 carcinoma cell lines); experiment: Therapeutic index, ratio of LC50 for human NCI60 cells to GI50 for human NCI60 cells measured after 48 hrs by sulforhodamine B assay; format: functional
C6 [3] = experiment: Cell cycle arrest in rat C6 cells assessed as cell population at G0/G1 phase measured after 24 hrs by propidium iodide staining based flow cytometry analysis; format: functional
UO-31 = experiment: Growth inhibition of human UO31 cells at 10^-5 M incubated for 48 hrs by sulforhodamine B assay relative to control; format: functional; conditions: UO-31, 48 h, read-out: GI
MCF7 = experiment: Growth inhibition of human MCF7 cells incubated for 48 hrs by sulforhodamine B assay; format: functional; conditions: MCF7, 48 h
MDA-MB-468 [4] = experiment: Growth inhibition of human MDA-MB-468 cells at 10^-5 M incubated for 48 hrs by sulforhodamine B assay relative to control; format: functional; conditions: MDA-MB-468, 48 h, read-out: GI
HL-60(TB) = experiment: Growth inhibition of human HL-60(TB) cells incubated for 48 hrs by sulforhodamine B assay; format: functional; conditions: HL-60, 48 h
786-0 = experiment: Growth inhibition of human 786-0 cells incubated for 48 hrs by sulforhodamine B assay; format: functional; conditions: 786-0, 48 h
OVCAR-3 = experiment: Growth inhibition of human OVCAR3 cells incubated for 48 hrs by sulforhodamine B assay; format: functional; conditions: OVCAR-3, 48 h
Malme-3M = experiment: Growth inhibition of human MALME-3M cells incubated for 48 hrs by sulforhodamine B assay; format: functional
MOLT-4 = experiment: Growth inhibition of human MOLT4 cells at 10^-5 M incubated for 48 hrs by sulforhodamine B assay relative to control; format: functional; conditions: MOLT-4, 48 h, read-out: GI
NCI-H460 = experiment: Growth inhibition of human NCI-H460 cells at 10^-5 M cells incubated for 48 hrs by sulforhodamine B assay relative to control; format: functional
C6 [5] = experiment: Cell cycle arrest in rat C6 cells assessed as decrease in cell population at G2/M phase measured after 24 hrs by propidium iodide staining based flow cytometry analysis; format: functional
RXF 393 = experiment: Growth inhibition of human RXF393 cells incubated for 48 hrs by sulforhodamine B assay; format: functional; conditions: RXF 393, 48 h
Dihydrofolate reductase = biological target: T1, Dihydrofolate reductase (Homo sapiens, UniProt P00374); experiment: Inhibition of human dihydrofolate reductase using dihydrofolic acid as substrate preincubated for 1 hr in presence of NADPH followed by substrate addition by enzyme immunoassay
T1 sequence (P00374 whole entry): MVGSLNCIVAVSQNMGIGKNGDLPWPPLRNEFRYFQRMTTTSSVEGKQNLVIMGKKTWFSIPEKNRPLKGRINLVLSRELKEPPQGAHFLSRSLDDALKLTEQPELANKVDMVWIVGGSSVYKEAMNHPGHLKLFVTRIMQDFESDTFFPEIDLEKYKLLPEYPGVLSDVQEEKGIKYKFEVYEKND

RPMI-8226 = experiment: Growth inhibition of human RPMI8226 cells incubated for 48 hrs by sulforhodamine B assay; format: functional; conditions: RPMI-8226, 48 h
C6 [6] = experiment: Cell cycle arrest in rat C6 cells assessed as increase in cell population at sub G0 phase measured after 24 hrs by propidium iodide staining based flow cytometry analysis; format: functional
EKVX = experiment: Growth inhibition of human EKVX cells incubated for 48 hrs by sulforhodamine B assay; format: functional
NCI-H226 = experiment: Growth inhibition of human NCI-H226 cells incubated for 48 hrs by sulforhodamine B assay; format: functional; conditions: NCI-H226, 48 h
HOP-62 = experiment: Growth inhibition of human HOP62 cells incubated for 48 hrs by sulforhodamine B assay; format: functional; conditions: HOP-62, 48 h
SR = experiment: Growth inhibition of human SR cells at 10^-5 M incubated for 48 hrs by sulforhodamine B assay relative to control; format: functional; conditions: read-out: GI
NCI-H322M = experiment: Growth inhibition of human NCI-H322M cells incubated for 48 hrs by sulforhodamine B assay; format: functional
HT-29 = experiment: Growth inhibition of human HT-29 cells at 10^-5 M incubated for 48 hrs by sulforhodamine B assay relative to control; format: functional; conditions: HT-29, 48 h, read-out: GI
SW-620 = experiment: Growth inhibition of human SW620 cells incubated for 48 hrs by sulforhodamine B assay; format: functional; conditions: SW-620, 48 h
[7] = read-out: pLC50 (the source's name) (converted)
[8] = read-out: LC50 (the source's name)

`O=C(OC[C@@H]1CO1)c1cccc2c(=O)c3ccccc3[nH]c12` showed a GI50 (MDA-MB-435) of 1.62 µM, a CC50 (MDA-MB-435; [7]) of 6.61 µM and a TGI (MDA-MB-435; read-out: pTGI (converted)) of 3.24 µM. For the same compound, the GI50 (MDA-MB-468 [1]) was 1.82 µM, the CC50 (MDA-MB-468 [1]; [7]) was 7.94 µM and the TGI (MDA-MB-468 [1]; read-out: pTGI (converted)) was 3.8 µM. It also gave a GI50 (SK-MEL-5) of 1.51 µM, a CC50 (SK-MEL-5; [7]) of 5.5 µM and a TGI (SK-MEL-5; read-out: pTGI (converted)) of 2.88 µM. For the same compound, the GI50 (NCI/ADR-RES) was 1.7 µM, the CC50 (NCI/ADR-RES; [7]) was over 100 µM and the TGI (NCI/ADR-RES; read-out: pTGI (converted)) was 6.31 µM. The GI50 (COLO 205) was 1.48 µM, the CC50 (COLO 205; [7]) was 33.9 µM and the TGI (COLO 205; read-out: pTGI (converted)) was 4.17 µM. It also gave a GI50 (TK-10) of 2.34 µM, a CC50 (TK-10; [7]) of over 100 µM and a TGI (TK-10; read-out: pTGI (converted)) of 6.76 µM. The GI50 (SN12C) was 1.82 µM, the CC50 (SN12C; [7]) was 41.7 µM and the TGI (SN12C; read-out: pTGI (converted)) was 7.08 µM. For the same compound, the GI50 (OVCAR-5) was 2.45 µM, the CC50 (OVCAR-5; [7]) was over 100 µM and the TGI (OVCAR-5; read-out: pTGI (converted)) was 6.46 µM. The TI [2] was 126, the Activity (C6 [3]) was “inactive” and the inhibition of growth at 10 µM (UO-31) was 100%. For the same compound, the GI50 (MCF7; read-out: GI50) was 0.38 µM, the CC50 (MCF7; [8]) was over 100 µM and the GI50 (MCF7; read-out: pGI50 (converted)) was 0.389 µM. It also gave a CC50 (MCF7; [7]) of over 100 µM, a TGI (MCF7; read-out: pTGI (converted)) of 2.95 µM and an inhibition of growth at 10 µM (MDA-MB-468 [4]) of 100%. It also gave a GI50 (HL-60(TB)) of 1.29 µM, a CC50 (HL-60(TB); [7]) of 8.51 µM and a TGI (HL-60(TB); read-out: pTGI (converted)) of 3.31 µM. The GI50 (786-0) was 2.75 µM, the CC50 (786-0; [7]) was over 100 µM and the TGI (786-0; read-out: pTGI (converted)) was 8.13 µM. For the same compound, the GI50 (OVCAR-3) was 2.29 µM, the CC50 (OVCAR-3; [7]) was 51.3 µM and the TGI (OVCAR-3; read-out: pTGI (converted)) was 7.24 µM. The GI50 (Malme-3M) was 1.66 µM, the CC50 (Malme-3M; [7]) was 6.17 µM and the TGI (Malme-3M; read-out: pTGI (converted)) was 3.16 µM. For the same compound, the inhibition of growth at 10 µM (MOLT-4) was 99%, the “growth inhibition (GI)” value (NCI-H460) was 100% and the inhibition (C6 [5]) was “Active”. It also gave a GI50 (RXF 393) of 1.38 µM, a CC50 (RXF 393; [7]) of 5.75 µM and a TGI (RXF 393; read-out: pTGI (converted)) of 2.82 µM. For the same compound, the IC50 (Dihydrofolate reductase) was 0.01 µM, the GI50 (RPMI-8226) was 1.95 µM and the CC50 (RPMI-8226; [7]) was over 100 µM. The TGI (RPMI-8226; read-out: pTGI (converted)) was 6.61 µM, the Activity (C6 [6]) was “Active” and the GI50 (EKVX) was 2.57 µM. It also gave a CC50 (EKVX; [7]) of over 100 µM, a TGI (EKVX; read-out: pTGI (converted)) of 6.46 µM and a GI50 (NCI-H226) of 1.58 µM. It also gave a TGI (NCI-H226; read-out: pTGI (converted)) of 3.47 µM, a GI50 (HOP-62) of 2.14 µM and a CC50 (HOP-62; [7]) of over 100 µM. The TGI (HOP-62; read-out: pTGI (converted)) was 5.89 µM, the inhibition of growth at 10 µM (SR) was 90% and the GI50 (NCI-H322M) was 2.19 µM. For the same compound, the CC50 (NCI-H322M; [7]) was over 100 µM, the TGI (NCI-H322M; read-out: pTGI (converted)) was 5.89 µM and the inhibition of growth at 10 µM (HT-29) was 100%. For the same compound, the GI50 (SW-620; read-out: GI50) was 0.83 µM, the CC50 (SW-620; [8]) was over 100 µM and the GI50 (SW-620; read-out: pGI50 (converted)) was 0.832 µM. For the same compound, the CC50 (SW-620; [7]) was over 100 µM and the TGI (SW-620; read-out: pTGI (converted)) was 12.9 µM.

From ChEMBL document CHEMBL4359904, “Structural tuning of acridones for developing anticancer agents targeting dihydrofolate reductase” (Bioorg Med Chem Lett, 2019)
